Assay results taken from the supplement of paper PMC12698765.
Structures can show the parent of a compound that is named as a salt. ± gives the standard deviation of the averaged measurements.

How the values were obtained:
[1] = tested on: 409B2 hiPSC (iCRISPR Cas9, FRMD7 editing); experiment: NHEJ-attributed indel frequency relative to solvent control (fold (ratio to mock)); higher = more NHEJ outcomes
Protocol: (§1)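 Subset screen of 55 drugs tested at 5 concentrations around the effective screening dose, in 409B2 iCRISPR Cas9 hiPSCs editing FRMD7 with a ssDNA donor. Drugs were applied for 24 h. Viability was read by resazurin and editing outcomes by amplicon sequencing (HDR, NHEJ <2 bp microhomology, MMEJ ≥2 bp microhomology). Values are relative to solvent mock controls; two biological replicates.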

[2] = tested on: 409B2 hiPSC (iCRISPR Cas9, FRMD7 editing); experiment: cell survival relative to solvent control (fold (ratio to mock)); higher = more surviving cells
Protocol: as §1

[3] = tested on: 409B2 hiPSC (iCRISPR Cas9, FRMD7 editing); experiment: HDR (precise edit) frequency relative to solvent control (fold (ratio to mock)); higher = more homology-directed repair outcomes
Protocol: as §1

[4] = tested on: 409B2 hiPSC (iCRISPR Cas9, FRMD7 editing); experiment: MMEJ-attributed deletion frequency relative to solvent control (fold (ratio to mock)); higher = more MMEJ outcomes
Protocol: as §1

Compound	NHEJ-attributed indel frequency ([1]; 2000 nM)	NHEJ-attributed indel frequency ([1]; 5000 nM)	cell survival ([2]; 2000 nM)	cell survival ([2]; 5000 nM)	HDR ([3]; 2000 nM)	HDR ([3]; 5000 nM)	MMEJ-attributed deletion frequency ([4]; 2000 nM)	MMEJ-attributed deletion frequency ([4]; 5000 nM)	NHEJ-attributed indel frequency ([1]; 10000 nM)	NHEJ-attributed indel frequency ([1]; 20000 nM)	NHEJ-attributed indel frequency ([1]; 50000 nM)	cell survival ([2]; 10000 nM)	cell survival ([2]; 20000 nM)	cell survival ([2]; 50000 nM)	HDR ([3]; 10000 nM)	HDR ([3]; 20000 nM)	HDR ([3]; 50000 nM)	MMEJ-attributed deletion frequency ([4]; 10000 nM)	MMEJ-attributed deletion frequency ([4]; 20000 nM)	MMEJ-attributed deletion frequency ([4]; 50000 nM)	also measured
OC[C@H]1O[C@@H](c2ccc(F)c(Cc3cc4ccccc4s3)c2)[C@H](O)[C@@H](O)[C@@H]1O [Ipragliflozin] (in DMSO)	–	–	–	–	–	–	–	–	–	–	–	–	–	–	–	–	–	–	–	–	NHEJ-attributed indel frequency ([1]; 20 nM): 1 ± 0.038; NHEJ-attributed indel frequency ([1]; 50 nM): 0.9974 ± 0.0051; NHEJ-attributed indel frequency ([1]; 100 nM): 1.005 ± 0.0019; NHEJ-attributed indel frequency ([1]; 200 nM): 1.01 ± 0.012; NHEJ-attributed indel frequency ([1]; 500 nM): 0.995 ± 0.032; cell survival ([2]; 20 nM): 0.951; cell survival ([2]; 50 nM): 1.11; cell survival ([2]; 100 nM): 0.915; cell survival ([2]; 200 nM): 1.12; cell survival ([2]; 500 nM): 0.95; HDR ([3]; 20 nM): 1.09 ± 0.029; HDR ([3]; 50 nM): 1 ± 0.037; HDR ([3]; 100 nM): 0.984 ± 0.064; HDR ([3]; 200 nM): 1.02 ± 0.07; HDR ([3]; 500 nM): 1.05 ± 0.067; MMEJ-attributed deletion frequency ([4]; 20 nM): 0.982 ± 0.092; MMEJ-attributed deletion frequency ([4]; 50 nM): 0.909 ± 0.09; MMEJ-attributed deletion frequency ([4]; 100 nM): 0.913 ± 0.041; MMEJ-attributed deletion frequency ([4]; 200 nM): 0.94 ± 0.11; MMEJ-attributed deletion frequency ([4]; 500 nM): 1.07 ± 0.08
CCc1c2c(nc3ccc(OC(=O)N4CCC(N5CCCCC5)CC4)cc13)-c1cc3c(c(=O)n1C2)COC(=O)[C@]3(O)CC [Irinotecan HCl Trihydrate] (in DMSO)	0.439 ± 0.01	0.434 ± 0.028	0.00496	0.00337	0.16683 ± 7e-05	0.149 ± 0.016	0.541 ± 0.16	0.575 ± 0.049	–	–	–	–	–	–	–	–	–	–	–	–	NHEJ-attributed indel frequency ([1]; 200 nM): 0.914 ± 0.024; NHEJ-attributed indel frequency ([1]; 500 nM): 0.694 ± 0.021; NHEJ-attributed indel frequency ([1]; 1000 nM): 0.617 ± 0.21; cell survival ([2]; 200 nM): 0.618; cell survival ([2]; 500 nM): 0.158; cell survival ([2]; 1000 nM): 0.0216; HDR ([3]; 200 nM): 1.097 ± 0.0069; HDR ([3]; 500 nM): 0.954 ± 0.14; HDR ([3]; 1000 nM): 0.662 ± 0.22; MMEJ-attributed deletion frequency ([4]; 200 nM): 0.853 ± 0.043; MMEJ-attributed deletion frequency ([4]; 500 nM): 0.688 ± 0.013; MMEJ-attributed deletion frequency ([4]; 1000 nM): 0.566 ± 0.31
O=[N+]([O-])O[C@@H]1CO[C@H]2[C@@H]1OC[C@@H]2O [Isosorbide 5-mononitrate] (in DMSO)	0.899 ± 0.036	0.9787 ± 0.0053	0.898	1.39	1.08 ± 0.25	1.14 ± 0.04	0.904 ± 0.25	0.993 ± 0.058	0.967 ± 0.016	0.988 ± 0.033	0.983 ± 0.013	1.19	1.15	1.36	1.14 ± 0.051	1.07 ± 0.14	1.22 ± 0.11	0.983 ± 0.057	0.994 ± 0.012	0.955 ± 0.048	–
CC(CCc1ccccc1)NCC(O)c1ccc(O)c(C(N)=O)c1 (stereo not given) [Labetalol HCl] (in DMSO)	0.988 ± 0.029	1.02 ± 0.0051	0.953	1.39	1.05 ± 0.063	0.878 ± 0.059	1.04 ± 0.027	0.975 ± 0.13	1.05 ± 0.018	1.093 ± 0.0077	1.0876 ± 0.00036	1.08	1.14	1.15	0.834 ± 0.025	0.757 ± 0.049	0.756 ± 0.028	1.13 ± 0.15	1.08 ± 0.034	1.25 ± 0.049	–
CCN1CCC[C@H]1CNC(=O)c1cc(S(N)(=O)=O)ccc1OC [Levosulpiride] (in DMSO)	0.98 ± 0.013	0.9952 ± 0.0031	1.06	1.32	1.05 ± 0.047	1.07 ± 0.081	1.07 ± 0.1	1.06 ± 0.0093	0.9818 ± 0.0064	1 ± 0.012	0.978 ± 0.038	1.26	1.18	1.33	1.13 ± 0.019	1.06 ± 0.13	1.09 ± 0.081	0.994 ± 0.19	1 ± 0.04	1 ± 0.04	–
CN(C)C(=O)C(CCN1CCC(O)(c2ccc(Cl)cc2)CC1)(c1ccccc1)c1ccccc1 [Loperamide HCl] (in DMSO)	0.923 ± 0.077	0.9735 ± 0.0074	0.928	1.24	0.9969 ± 0.0053	1.01 ± 0.044	1.31 ± 0.23	1.1 ± 0.094	0.928 ± 0.06	0.324 ± 0.053	0.186 ± 0.085	0.607	-0.00906	-0.00864	0.873 ± 0.035	0.136 ± 0.067	0.138 ± 0.11	0.998 ± 0.032	0.465 ± 0.16	0.224 ± 0.07	–
